# From article PMC12304293, “Combatting virulent gut bacteria by inhibiting the biosynthesis of a two-component lanthipeptide toxin” (Nature Communications, 2025)
# Non-standard residues stand in square brackets, D forms with d. Residues, ends and D or L forms follow the SMILES beside them. *: point of attachment. boroGlu = O=C(O)CC[C@H](N*)B(O)O; Gly(cPr) = N[C@H](C(=O)O)C1CC1
# Tests used:
# His6-CylA-27-412 [1] = molecular target: T1, His6-CylA-27-412 (Enterococcus faecalis, UniProt A0A2P6AWB8); experiment: Co-operative pore formation assay (pyranine liposomes) measuring CylA-catalyzed cytolysin maturation; type: biochemical
# T1 sequence (A0A2P6AWB8 27-412): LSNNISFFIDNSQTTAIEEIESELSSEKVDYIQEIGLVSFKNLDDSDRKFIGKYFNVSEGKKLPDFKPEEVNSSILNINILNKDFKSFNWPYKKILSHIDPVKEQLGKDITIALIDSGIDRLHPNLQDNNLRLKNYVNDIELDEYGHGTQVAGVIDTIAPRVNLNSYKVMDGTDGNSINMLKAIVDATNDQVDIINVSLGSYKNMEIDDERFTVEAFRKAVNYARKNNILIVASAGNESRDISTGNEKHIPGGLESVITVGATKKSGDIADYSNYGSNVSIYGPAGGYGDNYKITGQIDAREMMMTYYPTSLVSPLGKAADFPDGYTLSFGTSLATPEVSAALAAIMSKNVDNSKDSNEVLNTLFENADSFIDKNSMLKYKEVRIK
# Excerpt: Cytolysin causes hemolysis and lyses a variety of eukaryotic cells[36],[37]. Additionally, CylA aggregates and is thought to associate primarily with the membrane of the producing cell[52],[53]. To mimic the maturation of cytolysin in vitro, an enzyme assay was designed that linked toxin production to the lysis of fluorescently labeled liposomes. […] In this way, pyranine fluorescence was correlated to toxin activation allowing for the determination of EC50 values (Fig. 4B, C).
# Fig. 4 In vitro pore formation assay for determining inhibitor effectiveness. A A schematic of the assay showing how pore formation is used as an indicator of toxin maturation. […] Pore formation dissipates a pH gradient between the interior of the liposome and the surrounding buffer increasing pyranine fluorescence. […] The data points from two replicates are shown (n = 2). Source data are provided as a Source Data file.
# Pyranine encapsulated liposomes were prepared as described elsewhere. […] To a well in a black 96-well plate (200 µL) was added 90 µL high pH buffer (5 mM MES, 5 mM Tricine, 5 mM NaCl, pH 7.4) containing CylA (4 nM final concentration). After adding inhibitor, the mixture was incubated at room temperature for 10 min then freshly prepared (no more than 2 days old) pyranine encapsulated DOPC liposomes were added such that the total DOPC concentration was 80 µM. […] The resulting curves were max-min normalized yielding the fraction of permeabilized liposomes. […] This experiment was performed in duplicate or triplicate for each inhibitor at each concentration.
# Supplementary Figure 3. Measuring CylA-cat alyzed cytolysin maturation using a pyranine pore formation assay. Plots on the left side show the normalized pyranine emission intensity monitored […]
# was added 30 min later. Each trace w as collected using a differ ent total co ncentration of inhibitor as indicated in the l egend. Traces are from a single representative tri al. On the right side, the fraction of liposomes permeabilized after 30 min was plotted as a function of total inhibitor concentration. The data were fit to a dose-response function using Origin 7 and the fit curve is depicted by the red line. Errors bars represent the standard of deviation bet ween two replicates (n = 2). Source d ata are pro vided as a Source Data file. […]
# His6-CylA-27-412 [2] = molecular target: T1, His6-CylA-27-412; experiment: FRET assay, initial rates of FRET peptide cleavage; type: biochemical; details: 762, 254, or 85 pM of inhibitor (substoichiometric; enzyme 20 nM)
# Experimental: A FRET assay was developed to directly detect the inhibition of His6-CylA-27-412 activity by inhibitor 9. Fmoc SPPS was used to prepare a FRET labeled substrate. The substrate recognition sequence and a portion of the N-terminus of unmodified CylLS were embedded in between N-terminal Asp(EDANS) and C-terminal Lys(DABCYL) residues (Fig. 5A).
# A Structure of the FRET substrate and its cleavage by CylA. Samples of FRET substrate (44 µM) in PBS (pH = 7.4) before and after treatment with His6-CylA-27-412 (200 nM) overnight at 37 °C. […] Points represent the mean. Error bars represent the standard of deviation and are centered at the mean. C The relationship between relative enzyme activity (vi/vo) and concentration of 9. […] The colored line represents the calculated fit function. Points represent the mean and error bars represent the standard of deviation centered at the mean. […] For (D) and (E) absorbance at 220 nm was monitored. […] Statistical significance was calculated using a one sample and one-sided t test. *P < 0.05, **P < 0.01. […]
# The emission intensity of EDANS was measured over a 4 h period using a BioTek Synergy H4 plate reader. The slope of the linear portion of the emission intensity as a function of time curve was calculated (vi), divided by the slope of an uninhibited control (vo), and the ratio (vi/vo) was plotted as function of total inhibitor concentration.
compound,measurement,setting,value
CC(=O)NCC(=O)N[C@@H](CC(=O)O)C(=O)N[C@H](C(=O)N[C@@H](CCC(N)=O)C(=O)N[C@@H](C)C(=O)N[C@@H](CCC(=O)O)B(O)O)C1CC1 [Compound 9] (Ac-GD[Gly(cPr)]QA-boroGlu),more effective than compound 1 at inhibiting pore formation,His6-CylA-27-412 [1],2 fold
same,rate of FRET peptide cleavage,His6-CylA-27-412 [2],increased significantly
